As a reminder, the IC50 is the midpoint of a concentration-inhibition curve.

Read-outs that look alike come from different tables or passages of the source. A value given as a limit tells only on which side of the number the result lay.

We go through 24 compounds from patent US6689806B1, “Indolinone compounds as kinase inhibitors” (Sugen, Inc., priority 1999, dated 2004).

Common to all, as to type: cell-based
Assay [1] has as its target T1, Her2 (Homo sapiens, UniProt P04626).
T1 construct: fused on or other part: P00533 (Epidermal growth factor receptor)
Description: EGF-induced Her2-driven BrdU incorporation. To be noted: 3T3 cells with EGF-R/Her2 chimeric receptor, EGF 2 nM, read-out: BrdU DNA syn. HER2 IC50. The protocol: (§1) The cellular/biologic assays described herein measure the amount of DNA made in response to activation of a test kinase, which is a general measure of a proliferative response. The general procedure for this assay is as follows: a compound is introduced to cells expressing the test kinase, either naturally or recombinantly, for some period of time after which, if the test kinase is a receptor, a ligand known to activate the receptor is added. After incubation at least overnight, a DNA labeling reagent such as Bromodeoxy-uridine (BrdU) or 3H-thymidine is added. The amount of labeled DNA is detected with either an anti-BrdU antibody or by measuring radioactivity and is compared to control cells not contacted with a test compound.
EGF-Induced Her2-Driven BrdU Incorporation
(8) 3T3 cell line engineered to express a chimeric receptor having the extra-cellular domain of EGF-R and the intra-cellular domain of Her2.
(1) Cells are seeded at 8000 cells/well in DMEM, 10% CS, 2 mM Gln in a 96-well plate. Cells are incubated overnight at 37° C. in 5% CO2.
(§2) (2) After 24 hours, the cells are washed with PBS, and then are serum starved in serum free medium (0% CS DMEM with 0.1% BSA) for 24 hours.
(3) On day 3, ligand (EGF=2 nM, prepared in DMEM with 0.1% BSA) and test compounds are added to the cells simultaneously. The negative control wells receive serum free DMEM with 0.1% BSA only; the positive control cells receive the ligand (EGF) but no test compound. Test compounds are prepared in serum free DMEM with ligand in a 96 well plate, and serially diluted for 7 test concentrations.
(4) After 20 hours of ligand activation, diluted BrdU labeling reagent (1:100 in DMEM, 0.1% BSA) is added and the cells are incubated with BrdU (final concentration=[…]) for 1.5 hours.
(§3) (10) The absorbance of the samples are measured at 410 nm (in “dual wavelength” mode with a filter reading at 490 nm, as a reference wavelength) on a Dynatech ELISA plate reader.

Assay [2] addresses T1, Her2. As to the kind of experiment: HER-2 ELISA: EGF receptor-HER2 chimeric receptor assay in whole cells (HER2 kinase). As to conditions: NIH3T3 cells with EGFR/HER2 chimeric receptor, phosphotyrosine ELISA. The procedure, abridged:
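NIH3T3 cells expressing an EGFR extracellular/HER2 kinase-domain chimera, serum-reduced (0.5%), pretreated 2 h with compound (1% DMSO final), then stimulated 5 min with 100 nM EGF at room temperature. Lysate phosphotyrosine quantified by anti-pTyr ELISA, OD 410 nm; % inhibition after negative-control subtraction.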
(An ELISA detects its analyte on a solid surface through an enzyme-linked reagent.)

The target in another assay is PDGFR (Homo sapiens, UniProt P09619). Description: PDGF-induced BrdU incorporation assay. Also on record: expressed in transfected cells; host or cells: 3T3. To be noted: 3T3 cells expressing human PDGF-R, PDGF 3.8 nM. The protocol:
as §1
PDGF-Induced BrdU Incorporation Assay
(8) 3T3 cell line genetically engineered to express human PDGF-R.
(1) Cells are seeded at 8000 cells/well in DMEM, 10% CS, 2 mM Gln in a 96 well plate. Cells are incubated overnight at 37° C. in 5% CO2.
as §2
(3) On day 3, ligand (PDGF, 3.8 nM, prepared in DMEM with 0.1% BSA) and test compounds are added to the cells simultaneously. The negative control wells receive serum free DMEM with 0.1% BSA only; the positive control cells receive the ligand (PDGF) but no test compound. Test compounds are prepared in serum free DMEM with ligand in a 96 well plate, and serially diluted for 7 test concentrations.
(4) After 20 hours of ligand activation, diluted BrdU labeling reagent (1: 100 in DMEM, 0.1% BSA) is added and the cells are incubated with BrdU (final concentration=10 μM) for 1.5 hours.
as §3
For orientation: Uptake of a labelled nucleoside into DNA is a usual measure of proliferation.

Where [3] appears, read: Table 7, read-out: BrdU DNA syn. PDGFr IC50.
[4] abbreviates: Table 5, read-out: BrdU DNA syn. PDFGr IC50.

T1 sequence (P04626 676-1255 limits assumed): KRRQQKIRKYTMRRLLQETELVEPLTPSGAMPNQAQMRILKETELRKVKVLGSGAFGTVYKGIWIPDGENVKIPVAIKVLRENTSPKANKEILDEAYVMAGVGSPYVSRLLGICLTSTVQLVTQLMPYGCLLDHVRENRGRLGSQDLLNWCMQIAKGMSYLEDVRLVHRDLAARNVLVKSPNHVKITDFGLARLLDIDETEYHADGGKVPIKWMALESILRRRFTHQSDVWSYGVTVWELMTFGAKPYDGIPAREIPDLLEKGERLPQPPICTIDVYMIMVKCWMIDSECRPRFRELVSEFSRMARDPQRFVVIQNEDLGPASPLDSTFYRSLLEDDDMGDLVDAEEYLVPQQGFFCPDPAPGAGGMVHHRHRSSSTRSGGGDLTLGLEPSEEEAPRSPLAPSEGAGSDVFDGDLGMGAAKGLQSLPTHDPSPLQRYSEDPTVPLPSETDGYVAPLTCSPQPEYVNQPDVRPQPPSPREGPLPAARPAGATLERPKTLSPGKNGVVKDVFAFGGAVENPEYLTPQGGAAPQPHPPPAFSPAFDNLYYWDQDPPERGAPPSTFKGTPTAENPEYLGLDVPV
PDGFR, sequence (P09619 33-1106): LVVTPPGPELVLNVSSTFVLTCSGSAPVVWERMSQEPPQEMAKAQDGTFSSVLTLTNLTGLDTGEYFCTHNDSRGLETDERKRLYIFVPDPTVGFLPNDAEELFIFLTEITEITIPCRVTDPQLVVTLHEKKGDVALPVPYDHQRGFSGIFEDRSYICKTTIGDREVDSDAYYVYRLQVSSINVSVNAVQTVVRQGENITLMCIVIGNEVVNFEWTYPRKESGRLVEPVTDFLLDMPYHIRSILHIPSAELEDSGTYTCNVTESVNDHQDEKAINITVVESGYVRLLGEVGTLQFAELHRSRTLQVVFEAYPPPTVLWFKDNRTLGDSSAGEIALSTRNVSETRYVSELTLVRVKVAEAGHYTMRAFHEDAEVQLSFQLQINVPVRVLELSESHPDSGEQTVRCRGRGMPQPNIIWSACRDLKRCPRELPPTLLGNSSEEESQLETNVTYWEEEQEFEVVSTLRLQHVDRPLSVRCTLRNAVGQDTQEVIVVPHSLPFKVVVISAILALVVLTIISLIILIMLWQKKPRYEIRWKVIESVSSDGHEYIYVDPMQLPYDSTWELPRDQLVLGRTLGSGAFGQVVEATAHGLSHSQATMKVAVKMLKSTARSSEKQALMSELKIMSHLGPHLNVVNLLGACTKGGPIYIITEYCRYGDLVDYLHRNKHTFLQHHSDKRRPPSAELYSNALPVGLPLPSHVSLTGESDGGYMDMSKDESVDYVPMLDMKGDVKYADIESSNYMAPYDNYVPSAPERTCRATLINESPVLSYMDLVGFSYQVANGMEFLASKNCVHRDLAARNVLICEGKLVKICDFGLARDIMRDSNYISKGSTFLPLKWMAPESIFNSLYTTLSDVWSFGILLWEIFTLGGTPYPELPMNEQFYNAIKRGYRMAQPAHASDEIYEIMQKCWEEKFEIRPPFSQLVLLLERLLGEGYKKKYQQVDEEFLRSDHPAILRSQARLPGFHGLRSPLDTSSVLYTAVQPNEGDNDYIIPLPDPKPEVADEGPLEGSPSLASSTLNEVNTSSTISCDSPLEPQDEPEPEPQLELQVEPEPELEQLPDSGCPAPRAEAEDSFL

Turning to `Cc1ccc(O)c(C=C2C(=O)Nc3cccc(CCO)c32)n1` (racemic) [IN-022, 4-(2-Hydroxy-ethyl)-3-(3-hydroxy-6-methyl-pyridin-2-ylmethylene)-1,3-dihydro-indol-2-one], the IC50 at Her2 [1] (Table 7) is above 50 µM; against Her2 [2] (Table 7) it was above 100 µM; on PDGFR (setting [3]), above 50 µM.
Regarding `COc1ccc(CC2C(=O)Nc3ccc(F)cc32)cc1C1CCCC1` (stereo not drawn) [AAI-5, 3-(3-Cyclopentyl-4-methoxybenzyl)-5-fluoro-1,3-dihydroindol-2-one], the results for the IC50 at Her2 [1] (Table 5), against Her2 [2] (Table 5) and at PDGFR (setting [4]) were 32.7 µM, 16.4 µM and 32.7 µM, respectively.
In the case of `COc1ccc(CC2C(=O)Nc3cc(NC(C)=O)ccc32)cc1-c1cccs1` (stereo not drawn) [AAI-6, N-[3-(4-Methoxy-3-thiophen-2-ylbenzyl)-2-oxo-2,3-dihydro-1H-indol-6-yl]-acetamide], the results for the IC50 on Her2 [1] (Table 5), against Her2 [2] (Table 5) and on PDGFR (setting [4]) were 27.3 µM, above 100 µM and above 50 µM, respectively.
For `CC(=O)Nc1ccc2c(c1)NC(=O)C2Cc1ccc(OCCN2CCOCC2)c(C2CCCCC2)c1` (stereo not drawn) [AAI-7, N-{3-[3-Cyclohexyl-4-(2-morpholin-4-ylethoxy)-benzyl]-2-oxo-2,3-dihydro-1H-indol-6-yl}-acetamide], the IC50 on Her2 [1] (Table 5) was 6.8 µM; at Her2 [2] (Table 5) it was above 100 µM; at PDGFR (setting [4]) it was 31.1 µM.
`COc1ccc(CC2C(=O)Nc3ccc(CCN4CCOCC4)cc32)cc1-c1ccsc1` (stereo not drawn) [AAI-8, 3-(4-Methoxy-3-thiophen-3-ylbenzyl)-5-(2-morpholin-4-ylethyl)-1,3-dihydroindol-2-one]: the IC50 is 11.5 µM on Her2 [1] (Table 5), above 100 µM against Her2 [2] (Table 5) and above 50 µM at PDGFR (setting [4]).
Consider `COc1c(C(C)C)cc(CC2C(=O)Nc3ccccc32)cc1C(C)C` (stereo not drawn) [AAI-10, 3-(3,5-Diisopropyl-4-methoxybenzyl)-1,3-dihydroindol-2-one], for which the figures for the IC50 on Her2 [1] (Table 5), against Her2 [2] (Table 5) and at PDGFR (setting [4]) were 34.1 µM, 22.2 µM and above 50 µM, respectively.
Regarding `O=C1Nc2ccc(F)cc2C1Cc1ccc(O)c(C2CCCC2)c1` (stereo not drawn) [AAI-11, 3-(3-Cyclopentyl-4-hydroxybenzyl)-5-fluoro-1,3-dihydroindol-2-one], the IC50 is above 50 µM on Her2 [1] (Table 5), above 100 µM against Her2 [2] (Table 5) and above 50 µM at PDGFR (setting [4]).
On to `COc1cccc(-c2ccc3c(c2)NC(=O)C3Cc2ccccc2O)c1` (stereo not drawn) [AAI-13, 3-(2-Hydroxybenzyl)-6-(3-methoxyphenyl)-1,3-dihydroindol-2-one], for which the IC50 is above 50 µM on Her2 [1] (Table 5), above 100 µM at Her2 [2] (Table 5) and above 50 µM on PDGFR (setting [4]).
With `Cc1cccc2c1C(Cc1ccc3[nH]ccc3c1)C(=O)N2` (stereo not drawn) [AAI-16, 3-(1H-Indol-5-ylmethyl)-4-methyl-1,3-dihydroindol-2-one], the values for the IC50 on Her2 [1] (Table 5), on Her2 [2] (Table 5) and on PDGFR (setting [4]) were above 50 µM, above 100 µM and above 50 µM, respectively.
With `O=C1Nc2ccccc2C1Cc1ccc2[nH]ccc2c1` (stereo not drawn) [AAI-17, 3-(1H-Indol-5-ylmethyl)-1,3-dihydroindol-2-one], the IC50 was above 50 µM on Her2 [1] (Table 5), above 100 µM against Her2 [2] (Table 5) and above 50 µM at PDGFR (setting [4]).
For the compound `Cc1[nH]c(CC2C(=O)Nc3ccccc32)c(C)c1CCCN(C)C` (stereo not drawn) [AAI-18, 3-[4-(3-Dimethylaminopropyl)-3,5-dimethyl-1H-pyrrol-2-ylmethyl]-1,3-dihydroindol-2-one], the IC50 on Her2 [1] (Table 5) was above 50 µM; at Her2 [2] (Table 5), 28.5 µM; at PDGFR (setting [4]) it was 3.87 µM.
As for `COc1ccccc1-c1ccc2c(c1)NC(=O)C2Cc1[nH]c(C)c(CCCN(C)C)c1C` (stereo not drawn) [AAI-20, 3-[4-(3-Dimethylamino-propyl)-3,5-dimethyl-1H-pyrrol-2-ylmethyl]-6-(2-methoxy-phenyl)-1,3-dihydro-indol-2-one], the concentration for half-maximal inhibition (IC50) is 29.2 µM on Her2 [1] (Table 5), 20.9 µM on Her2 [2] (Table 5) and 8.81 µM at PDGFR (setting [4]).
With `COc1cccc(-c2ccc3c(c2)NC(=O)C3Cc2[nH]c(C)c(CCCN(C)C)c2C)c1` (stereo not drawn) [AAI-21, 3-[4-(3-Dimethylaminopropyl)-3,5-dimethyl-1H-pyrrol-2-ylmethyl]-6-(3-methoxyphenyl)-1,3-dihydroindol-2-one], the IC50 at Her2 [1] (Table 5) is above 50 µM; at Her2 [2] (Table 5), 52.9 µM; at PDGFR (setting [4]), 1.2 µM.
As for `COc1ccc(-c2ccc3c(c2)NC(=O)C3Cc2[nH]c(C)c(CCCN(C)C)c2C)cc1` (stereo not drawn) [AAI-22, 3-[4-(3-Dimethylaminopropyl)-3,5-dimethyl-1H-pyrrol-2-ylmethyl]-6-(4-methoxyphenyl)-1,3-dihydroindol-2-one], the figures for the IC50 at Her2 [1] (Table 5), against Her2 [2] (Table 5) and at PDGFR (setting [4]) were above 50 µM, 21.4 µM and 1.15 µM, respectively.
In the same order, the values of `Cc1[nH]c(CC2C(=O)Nc3ccc(Cl)cc32)c(C)c1CCCN(C)C` (stereo not drawn) [AAI-23, 5-Chloro-3-[4-(3-dimethylaminopropyl)-3,5-dimethyl-1H-pyrrol-2-ylmethyl]-1,3-dihydroindol-2-one] are above 50 µM, 54.1 µM and 0.35 µM.
In the same order, the values of `O=C1Nc2cc(-c3ccccc3)ccc2C1Cc1cccc(F)c1O` (stereo not drawn) [AAI-24, 3-(3-Fluoro-2-hydroxybenzyl)-6-phenyl-1,3-dihydroindol-2-one] are 30.9 µM, 26.1 µM and above 50 µM.
In the same order, the values of `COc1ccc(CC2C(=O)Nc3cc(-c4ccccc4)ccc32)c(O)c1` (stereo not drawn) [AAI-25, 3-(2-Hydroxy-4-methoxybenzyl)-6-phenyl-1,3-dihydroindol-2-one] are above 50 µM, above 100 µM and above 50 µM.
`Cc1cccc(CC2C(=O)Nc3cccc(CCO)c32)n1` (stereo not drawn) [AAI-27, 4-(2-Hydroxyethyl)-3-(6-methylpyridin-2-ylmethyl)-1,3-dihydroindol-2-one]: the IC50 on Her2 [1] (Table 5) is above 50 µM; against Her2 [2] (Table 5) it was above 100 µM; on PDGFR (setting [4]), above 50 µM.
For the compound `CC(C)c1cccc(OCCc2cccc3c2CC(=O)N3)c1` [IN-001, 4-[2-(3-Isopropyl-phenoxy)-ethyl]-1,3-dihydro-indol-2-one], the values for the half-inhibitory concentration (IC50) at Her2 [1] (Table 7), against Her2 [2] (Table 7) and on PDGFR (setting [3]) were 28.9 µM, 16.6 µM and 35.2 µM, respectively.
With `CC(C)c1ccccc1OCCc1cccc2c1CC(=O)N2` [IN-002, 4-[2-(2-Isopropyl-phenoxy)-ethyl]-1,3-dihydro-indol-2-one], the 50% inhibitory concentration (IC50) at Her2 [1] (Table 7) was found to be 30 µM; against Her2 [2] (Table 7), 18 µM; on PDGFR (setting [3]) it was 37.1 µM.
Take `O=C1Cc2c(CCOc3cccc(-c4ccccc4)c3)cccc2N1` [IN-003, 4-[2-(Biphenyl-3-yloxy)-ethyl]-1,3-dihydro-indol-2-one]: the 50% inhibitory concentration (IC50) at Her2 [1] (Table 7) stood at 12.1 µM; at Her2 [2] (Table 7), 15.5 µM; on PDGFR (setting [3]), 22 µM.
For `O=C1Nc2cccc(CCO)c2/C1=C\c1ccc(Br)cc1` [IN-004, 3-(4-Bromo-benzylidene)-4-(2-hydroxy-ethyl)-1,3-dihydro-indol-2-one], the IC50 at Her2 [1] (Table 7) came out at 3.6 µM; against Her2 [2] (Table 7) it was 10.6 µM; on PDGFR (setting [3]), 3.3 µM.
In the case of `O=C1Nc2cccc(CCO)c2/C1=C/c1ccccn1` [IN-005, 4-(2-Hydroxy-ethyl)-3-pyridin-2-ylmethylene-1,3-dihydro-indol-2-one], the IC50 on Her2 [1] (Table 7) stood at 1.6 µM; at Her2 [2] (Table 7) it was 12.9 µM; on PDGFR (setting [3]) it was 1.7 µM.
For the compound `Cc1cccc(/C=C2\C(=O)Nc3cccc(CCO)c32)n1` [IN-006], the values for the IC50 on Her2 [1] (Table 7), at Her2 [2] (Table 7) and at PDGFR (setting [3]) were 6.6 µM, 10.6 µM and 4.6 µM, respectively.
